ChEMBL document CHEMBL1122475, “Antidepressant activity of 5-aryl-2,3,5,6-tetrahydroimidazo[2,1-a]isoquinolin-5-ols” (1983)
Calls of active or inactive are those of the source. The calls are words filed in the database; no cut-off is given here.

How the values were obtained:
[1] = system: Mus musculus; assay: Dose at which 50% convulsions occurred in mice (ip); assay type: functional
[2] = system: Mus musculus; assay: Dose required to induce hyperactivity in mice (ip); not active at a dose of 25.0 mg/kg; assay type: functional, organism-based; set-up: dose 25 mg/kg
[3] = system: Mus musculus; assay: Dose required to induce hypersensitivity in mice (ip); assay type: functional
[4] = system: Mus musculus; assay: Minimal dose required to cause aggressiveness in mice after ip administration; not active at a dose of 25.0 mg/kg; assay type: functional, organism-based; set-up: dose 25 mg/kg
[5] = system: Mus musculus; assay: Minimal dose required to cause piloerection in mice after ip administration; assay type: functional
[6] = system: Mus musculus; assay: Minimal dose required to induce hyperaesthesia in mice (ip); assay type: functional
[7] = system: Mus musculus; assay: Minimal dose required to induce in mice exophthalmus (ip); assay type: functional
[8] = system: Mus musculus; assay: Minimal dose required to induce in mice straub tail (ip); assay type: functional
[9] = system: Mus musculus; assay: Inhibition of reserpine (5 mg/kg i.p.) induced hypothermia in mice 2 hr after i.p. administration.; assay type: functional; settings: ip
[10] = system: Mus musculus; assay: Lethal dose by i.p. administration.; assay type: functional; settings: ip
[11] = system: Mus musculus; assay: Inhibition of reserpine (5 mg/kg i.p.) induced hypothermia in mice 4 hr after i.p. administration.; assay type: functional; settings: ip
[12] = system: Mus musculus; assay: Minimal dose required to cause piloerection in mice after ip administration; not active at a dose of 25.0 mg/kg; assay type: functional, organism-based; set-up: dose 25 mg/kg
[13] = system: Mus musculus; assay: Minimal dose required to induce hyperaesthesia in mice (ip); not active at a dose of 25.0 mg/kg; assay type: functional, organism-based; set-up: dose 25 mg/kg
[14] = system: Mus musculus; assay: Minimal dose required to induce in mice exophthalmus (ip); not active at a dose of 25.0 mg/kg; assay type: functional, organism-based; set-up: dose 25 mg/kg
[15] = system: Mus musculus; assay: Minimal dose required to induce in mice straub tail (ip); not active at a dose of 25.0 mg/kg; assay type: functional, organism-based; set-up: dose 25 mg/kg
[16] = system: Mus musculus; assay: Dose required to induce hyperactivity in mice (ip); not active at a dose of 50.0 mg/kg; assay type: functional, organism-based; set-up: dose 50 mg/kg
[17] = system: Mus musculus; assay: Minimal dose required to cause aggressiveness in mice after ip administration; not active at a dose of 50.0 mg/kg; assay type: functional, organism-based; set-up: dose 50 mg/kg
[18] = system: Mus musculus; assay: Minimal dose required to cause piloerection in mice after ip administration; not active at a dose of 50.0 mg/kg; assay type: functional, organism-based; set-up: dose 50 mg/kg
[19] = system: Mus musculus; assay: Minimal dose required to induce in mice exophthalmus (ip); not active at a dose of 50.0 mg/kg; assay type: functional, organism-based; set-up: dose 50 mg/kg
[20] = system: Mus musculus; assay: Dose required to induce hypersensitivity in mice (ip); not active at a dose of 25.0 mg/kg; assay type: functional, organism-based; set-up: dose 25 mg/kg
[21] = system: Felis catus; assay: Compound tested to induce facilitation of monosynaptic spikes in spinal ventral root by stimulation of the dorsal root (DR-VR) after iv administration in cats; assay type: functional
[22] = system: Mus musculus; assay: Dose required to induce hyperactivity in mice (ip); assay type: functional
[23] = system: Felis catus; assay: Compound tested to induce facilitation of monosynaptic spikes in spinal ventral root by stimulation of the dorsal root (DR-VR) after iv administration in cats; 0.3-1.0; assay type: functional
[24] = system: Mus musculus; assay: Dose required to induce hypersensitivity in mice (ip); weak active at a dose of 12.5 mg/kg; assay type: functional, organism-based; set-up: dose 12.5 mg/kg
[25] = system: Mus musculus; assay: Minimal dose required to cause aggressiveness in mice after ip administration; assay type: functional
[26] = system: Mus musculus; assay: Minimal dose required to cause piloerection in mice after ip administration; not active at a dose of 12.5 mg/kg; assay type: functional, organism-based; set-up: dose 12.5 mg/kg
[27] = system: Felis catus; assay: Compound tested to induce facilitation of monosynaptic spikes in spinal ventral root by stimulation of the dorsal root (DR-VR) after iv administration in cats; range is 0.1-0.3; assay type: functional
[28] = system: Mus musculus; assay: Dose required to induce hyperactivity in mice (ip); weak at a dose of 150.0 mg/kg; assay type: functional, organism-based; set-up: dose 150 mg/kg
[29] = system: Mus musculus; assay: Minimal dose required to cause aggressiveness in mice after ip administration; not active at a dose of 150.0 mg/kg; assay type: functional, organism-based; set-up: dose 150 mg/kg
[30] = system: Mus musculus; assay: Minimal dose required to cause piloerection in mice after ip administration; not active at a dose of 150.0 mg/kg; assay type: functional, organism-based; set-up: dose 150 mg/kg
[31] = system: Mus musculus; assay: Minimal dose required to induce hyperaesthesia in mice (ip); not active at a dose of 150.0 mg/kg; assay type: functional, organism-based; set-up: dose 150 mg/kg
[32] = system: Mus musculus; assay: Minimal dose required to induce in mice exophthalmus (ip); not active at a dose of 150.0 mg/kg; assay type: functional, organism-based; set-up: dose 150 mg/kg
[33] = system: Mus musculus; assay: Minimal dose required to induce in mice straub tail (ip); not active at a dose of 150.0 mg/kg; assay type: functional, organism-based; set-up: dose 150 mg/kg
[34] = system: Mus musculus; assay: Dose required to induce hypersensitivity in mice (ip); not active at 12.5 mg/kg; assay type: functional, organism-based; set-up: dose 12.5 mg/kg
[35] = system: Mus musculus; assay: Minimal dose required to cause aggressiveness in mice after ip administration; not active at 12.5 mg/kg; assay type: functional, organism-based; set-up: dose 12.5 mg/kg
[36] = system: Mus musculus; assay: Minimal dose required to cause piloerection in mice after ip; not active at 12.5 mg/kg; assay type: functional, organism-based; set-up: dose 12.5 mg/kg
[37] = system: Mus musculus; assay: Minimal dose required to induce in mice exophthalmus (ip); not active at 12.5 mg/kg at 12.5 mg/kg; assay type: functional, organism-based
[38] = system: Mus musculus; assay: Minimal dose required to induce in mice straub tail (ip); not active at 12.5 mg/kg at 12.5 mg/kg; assay type: functional, organism-based

## OC1(c2cccs2)Cc2ccccc2C2=NCCN21 (centres undefined)
[1]
  CD50: 75 mg/kg
[2]
  ED50: inactive
[3]
  ED50: 25 mg/kg
[4]
  MD: inactive
[5]
  MD: 25 mg/kg
[6]
  MD: 18.8 mg/kg
[7]
  MD: 18.8 mg/kg
[8]
  MD: 18.8 mg/kg
[9]
  ED50: 4.5 mg/kg
[10]
  LD50: 68.8 mg/kg
[11]
  ED50: > 25.6 mg/kg

## OC1(c2ccc(Cl)cc2)c2ccccc2C2=NCCN21 (centres undefined) [MAZINDOL]
[9]
  ED50: 0.05 mg/kg
[11]
  ED50: 0.12 mg/kg

## OC1(Cc2ccccc2)Cc2ccccc2C2=NCCN21 (centres undefined)
[1]
  CD50: 37.5 mg/kg
[2]
  ED50: inactive
[3]
  ED50: 25 mg/kg
[4]
  MD: inactive
[12]
  MD: inactive
[13]
  MD: inactive
[14]
  MD: inactive
[15]
  MD: inactive
[9]
  ED50: 5.9 mg/kg
[10]
  LD50: 37.5 mg/kg
[11]
  ED50: > 25.6 mg/kg

## Cc1ccc(C2(O)Cc3ccccc3C3=NCCN32)cc1 (centres undefined)
[1]
  CD50: 75 mg/kg
[16]
  ED50: inactive
[3]
  ED50: 37.5 mg/kg
[17]
  MD: inactive
[18]
  MD: inactive
[6]
  MD: 37.5 mg/kg
[19]
  MD: inactive
[8]
  MD: 37.5 mg/kg
[9]
  ED50: > 25.6 mg/kg
[10]
  LD50: 84.1 mg/kg
[11]
  ED50: > 25.6 mg/kg

## OC1(c2ccncc2)Cc2ccccc2C2=NCCN21 (centres undefined)
[1]
  CD50: 37.5 mg/kg
[2]
  ED50: inactive
[20]
  ED50: Weak
[4]
  MD: inactive
[12]
  MD: inactive
[6]
  MD: 18.8 mg/kg
[7]
  MD: 18.8 mg/kg
[8]
  MD: 18.8 mg/kg
[9]
  ED50: 2.3 mg/kg
[10]
  LD50: 37.9 mg/kg
[11]
  ED50: 3.3 mg/kg

## OC1(c2ccc(Cl)cc2)Cc2ccccc2C2=NCCN21 (centres undefined)
[21]
  Activity: >1 mg/kg
[1]
  CD50: 37.5 mg/kg
[22]
  ED50: 25 mg/kg
[20]
  ED50: inactive
[12]
  MD: inactive
[6]
  MD: 37.5 mg/kg
[7]
  MD: 18.8 mg/kg
[8]
  MD: 18.8 mg/kg
[9]
  ED50: 0.025 mg/kg
[10]
  LD50: 75 mg/kg
[11]
  ED50: 6.4 mg/kg

## OC1(c2ccc(F)cc2)Cc2ccccc2C2=NCCN21 (centres undefined)
[23]
  Activity: 0.3 mg/kg
[1]
  CD50: 75 mg/kg
[22]
  ED50: 25 mg/kg
[3]
  ED50: 25 mg/kg
[5]
  MD: 18.8 mg/kg
[6]
  MD: 18.8 mg/kg
[7]
  MD: 9.4 mg/kg
[8]
  MD: 9.4 mg/kg
[9]
  ED50: 0.06 mg/kg
[10]
  LD50: 76.9 mg/kg
[11]
  ED50: 10 mg/kg

## OC1(c2cccc(F)c2)Cc2ccccc2C2=NCCN21 (centres undefined)
[22]
  ED50: 12.5 mg/kg
[24]
  ED50: Weak
[25]
  MD: 9.4 mg/kg
[26]
  MD: inactive
[6]
  MD: 9.4 mg/kg
[7]
  MD: 9.4 mg/kg
[8]
  MD: 9.4 mg/kg
[9]
  ED50: 0.7 mg/kg
[10]
  LD50: 21 mg/kg
[11]
  ED50: 5.2 mg/kg

## OC1(c2ccc(Cl)c(Cl)c2)Cc2ccccc2C2=NCCN21 (centres undefined)
[27]
  Activity: 0.1 mg/kg
[28]
  ED50: Weak
[3]
  ED50: 150 mg/kg
[29]
  MD: inactive
[30]
  MD: inactive
[31]
  MD: inactive
[32]
  MD: inactive
[33]
  MD: inactive
[9]
  ED50: 1.6 mg/kg
[10]
  LD50: 150 mg/kg
[11]
  ED50: > 25.6 mg/kg

## OC1(c2ccccc2)Cc2ccccc2C2=NCCN21 (centres undefined)
[22]
  ED50: 12.5 mg/kg
[34]
  ED50: inactive
[35]
  MD: inactive
[36]
  MD: inactive
[6]
  MD: 9.4 mg/kg
[37]
  MD: inactive
[38]
  MD: inactive
[9]
  ED50: 5 mg/kg
[10]
  LD50: 37.5 mg/kg
[11]
  ED50: > 9.4 mg/kg
